Measured values reported in patent US10555987B2, “GHRH agonists for the treatment of ischemic disorders” (UNIVERSITY OF MIAMI, priority 2012, dated 2020).
Non-standard residues stand in square brackets, D forms with d. Residues, ends and D or L forms follow the SMILES beside them. ξ: configuration not given here. *: point of attachment. Phe(F5) = N[C@@H](Cc1c(F)c(F)c(F)c(F)c1F)C(=O)O; Desaminotyrosyl = O=C(CCc1ccc(O)cc1)*; NMeY = CN[C@@H](Cc1ccc(O)cc1)C(=O)O; Nle = CCCC[C@H](N)C(=O)O; Orn = NCCC[C@H](N)C(=O)O; Abu = CC[C@H](N)C(=O)O; GABA = NCCCC(=O)O; ξA = CC(N)C(=O)O

Columns and labels:
GHRH receptor = molecular target: T1, GHRH receptor (Homo sapiens, UniProt Q02643); test: GHRH receptor binding, competition with 125I-labeled JV-1-42, human pituitary membrane homogenates (Table 7); set-up: Normal human pituitaries were purchased from the National Hormone and Peptide Program; tissue National Hormone and Peptide Program (A.F. Parlow, Harbor-UCLA Medical Center, Torrance, Calif.); host or cells: normal human pituitary, membrane fraction; settings: JI-38 = 1, Table 7
T1 sequence (Q02643 23-423): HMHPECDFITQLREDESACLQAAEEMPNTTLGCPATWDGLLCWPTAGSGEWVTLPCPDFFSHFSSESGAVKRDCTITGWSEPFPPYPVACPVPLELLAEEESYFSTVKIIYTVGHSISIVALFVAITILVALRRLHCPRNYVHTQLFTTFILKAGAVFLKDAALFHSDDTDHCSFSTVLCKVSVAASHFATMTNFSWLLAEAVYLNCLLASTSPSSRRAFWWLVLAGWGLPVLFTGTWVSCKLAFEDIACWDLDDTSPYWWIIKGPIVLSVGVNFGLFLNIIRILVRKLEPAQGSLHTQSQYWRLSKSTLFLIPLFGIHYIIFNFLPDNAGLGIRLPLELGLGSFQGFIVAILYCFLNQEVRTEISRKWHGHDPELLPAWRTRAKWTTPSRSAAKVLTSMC
Description: Normal human pituitaries were purchased from the National Hormone and Peptide Program (A.F. Parlow, Los Angeles, County Harbor-UCLA Medical Center, Torrance, Calif.).

GH release = test: In vivo endocrine activity, GH release after subcutaneous administration (Table 9); settings: rat, subcutaneous (s.c.) injection
Protocol: Subcutaneous Administration. Adult male rats were used and anesthetized with pentobarbital (6 mg/100 g, b.w.), by i.p. injection. […] Blood samples were taken from the jugular vein 5, 15 and/or 30 minutes after the injection. The blood samples were centrifuged, plasma was removed and the GH level was measured byELISA. The results are summarized in terms of potency in Table 9.

Row | SMILES | Relative affinity (Binding potency) vs JI-38 (GHRH receptor) | GH releasing potency relative to JI-38 (=1) (GH release; 5 min after) | GH releasing potency relative to JI-38 (=1) (GH release; 15 min after) | GH releasing potency relative to JI-38 (=1) (GH release; 30 min after)
1 | CCCC[C@H](NC(=O)[C@@H](NC(=O)[C@H](CC(=O)O)NC(=O)[C@H](CCC(N)=O)NC(=O)[C@H](CC(C)C)NC(=O)[C@H](CC(C)C)NC(=O)[C@H](CCCN)NC(=O)[C@H](CCCNC(=N)N)NC(=O)[C@H](C)NC(=O)[C@H](CO)NC(=O)[C@H](CC(C)C)NC(=O)[C@H](CCC(N)=O)NC(=O)[C@H](CC)NC(=O)[C@H](CC(C)C)NC(=O)[C@@H](NC(=O)[C@H](CCCN)NC(=O)[C@H](CCCNC(=N)N)NC(=O)[C@H](Cc1ccc(O)cc1)NC(=O)[C@H](CO)NC(=O)[C@H](CC(N)=O)NC(=O)[C@@H](NC(=O)[C@H](Cc1ccccc1)NC(=O)[C@@H](NC(=O)[C@H](C)NC(=O)[C@H](CC(=O)O)NC(=O)[C@H](CC)NC(=O)[C@H](Cc1ccc(O)cc1)NC)[C@@H](C)CC)[C@@H](C)O)C(C)C)[C@@H](C)CC)C(=O)N[C@@H](CO)C(=O)N[C@@H](CCCNC(=N)N)C(=O)NCCCC(N)=O [Peptide P-25503, [N—Me-Tyr^1, Abu^2, Orn^12, Abu^15, Orn^21, Nle^27, Gab^30]hGHRH(1-30)NH2] (H-[NMeY][Abu]DAIFTNSYR[Orn]VL[Abu]QLSAR[Orn]LLQDI[Nle]SR[GABA]-NH2) | 3.67 | 0.55 | 0.64 | 0.63
2 | CCCC[C@H](NC(=O)[C@@H](NC(=O)[C@H](CC(=O)O)NC(=O)[C@H](CCC(N)=O)NC(=O)[C@H](CC(C)C)NC(=O)[C@H](CC(C)C)NC(=O)[C@H](CCCN)NC(=O)[C@H](CCCNC(=N)N)NC(=O)[C@H](C)NC(=O)[C@H](CO)NC(=O)[C@H](CC(C)C)NC(=O)[C@H](CCC(N)=O)NC(=O)[C@H](CC)NC(=O)[C@H](CC(C)C)NC(=O)[C@@H](NC(=O)[C@H](CCCN)NC(=O)[C@H](CCCNC(=N)N)NC(=O)[C@H](Cc1ccc(O)cc1)NC(=O)[C@H](CO)NC(=O)[C@H](CC(N)=O)NC(=O)[C@@H](NC(=O)[C@H](Cc1ccccc1)NC(=O)[C@@H](NC(=O)[C@H](C)NC(=O)[C@H](CC(=O)O)NC(=O)[C@@H](C)NC(=O)CCc1ccc(O)cc1)[C@@H](C)CC)[C@@H](C)O)C(C)C)[C@@H](C)CC)C(=O)N[C@@H](CC(=O)O)C(=O)N[C@@H](CCCNC(=N)N)C(=O)NC [Peptide P-27400, [Dat^1, D-Ala^2, Orn^12, Abu^15, Orn^21, Nle^27, Asp^28]hGHRH(1-29)NH—CH3] (Desaminotyrosyl-[dA]DAIFTNSYR[Orn]VL[Abu]QLSAR[Orn]LLQDI[Nle]DR-NHMe) | 1.30 | – | 0.47 | 0.38
3 | CCCC[C@H](NC(=O)[C@@H](NC(=O)[C@H](CC(=O)O)NC(=O)[C@H](CCC(N)=O)NC(=O)[C@H](CC(C)C)NC(=O)[C@H](CC(C)C)NC(=O)[C@H](CCCN)NC(=O)[C@H](Cc1c[nH]cn1)NC(=O)[C@H](C)NC(=O)[C@H](CO)NC(=O)[C@H](CC(C)C)NC(=O)[C@H](CCC(N)=O)NC(=O)[C@H](CC)NC(=O)[C@H](CC(C)C)NC(=O)[C@@H](NC(=O)[C@H](CCCN)NC(=O)[C@H](Cc1c[nH]cn1)NC(=O)[C@H](Cc1ccc(O)cc1)NC(=O)[C@H](CO)NC(=O)[C@H](CCC(N)=O)NC(=O)[C@@H](NC(=O)[C@H](Cc1ccccc1)NC(=O)[C@@H](NC(=O)[C@H](C)NC(=O)[C@H](CC(=O)O)NC(=O)C(C)NC(=O)CCc1ccc(O)cc1)[C@@H](C)CC)[C@@H](C)O)C(C)C)[C@@H](C)CC)C(=O)N[C@@H](CC(=O)O)C(=O)N[C@@H](CCCNC(=N)N)C(=O)NC (stereo partly shown) [Peptide P-27413, [Dat^1, Gln^8, His^11, Orn^12, Abu^15, His^20, Orn^21, Nle^27, Asp^28]hGHRH(1-29)NH—CH3] (Desaminotyrosyl-[ξA]DAIFTQSYH[Orn]VL[Abu]QLSAH[Orn]LLQDI[Nle]DR-NHMe) | 1.78 | – | 0.36 | 0.57
4 | CCCC[C@H](NC(=O)[C@@H](NC(=O)[C@H](CC(=O)O)NC(=O)[C@H](CCC(N)=O)NC(=O)[C@H](CC(C)C)NC(=O)[C@H](CC(C)C)NC(=O)[C@H](CCCN)NC(=O)[C@H](CCCNC(=N)N)NC(=O)[C@H](C)NC(=O)[C@H](CO)NC(=O)[C@H](CC(C)C)NC(=O)[C@H](CCC(N)=O)NC(=O)[C@H](CC)NC(=O)[C@H](CC(C)C)NC(=O)[C@@H](NC(=O)[C@H](CCCN)NC(=O)[C@H](CCCNC(=N)N)NC(=O)[C@H](Cc1ccc(O)cc1)NC(=O)[C@H](CO)NC(=O)[C@H](CC(N)=O)NC(=O)[C@@H](NC(=O)[C@H](Cc1c(F)c(F)c(F)c(F)c1F)NC(=O)[C@@H](NC(=O)[C@H](C)NC(=O)[C@H](CC(=O)O)NC(=O)[C@@H](C)NC(=O)[C@H](Cc1ccc(O)cc1)NC)[C@@H](C)CC)[C@@H](C)O)C(C)C)[C@@H](C)CC)C(=O)N[C@@H](CO)C(=O)N[C@@H](CCCNC(=N)N)C(=O)NCCCC(=O)NC [Peptide P-27414, [N—Me-Tyr^1, D-Ala^2, Fpa5^6, Orn^12, Abu^15, Orn^21, Nle^27, Gab^30]hGHRH(1-30)NH—CH3] (H-[NMeY][dA]DAI[Phe(F5)]TNSYR[Orn]VL[Abu]QLSAR[Orn]LLQDI[Nle]SR[GABA]-NHMe) | 2.79 | – | 1.30 | 1.23
5 | CCCC[C@H](NC(=O)[C@@H](NC(=O)[C@H](CC(=O)O)NC(=O)[C@H](CCC(N)=O)NC(=O)[C@H](CC(C)C)NC(=O)[C@H](CC(C)C)NC(=O)[C@H](CCCN)NC(=O)[C@H](CCCNC(=N)N)NC(=O)[C@H](C)NC(=O)[C@H](CO)NC(=O)[C@H](CC(C)C)NC(=O)[C@H](CCC(N)=O)NC(=O)[C@H](CC)NC(=O)[C@H](CC(C)C)NC(=O)[C@@H](NC(=O)[C@H](CCCN)NC(=O)[C@H](CCCNC(=N)N)NC(=O)[C@H](Cc1ccc(O)cc1)NC(=O)[C@H](CO)NC(=O)[C@H](CC(N)=O)NC(=O)[C@@H](NC(=O)[C@H](Cc1ccccc1)NC(=O)[C@@H](NC(=O)[C@H](C)NC(=O)[C@H](CC(=O)O)NC(=O)[C@H](C)NC(=O)[C@H](Cc1ccc(O)cc1)NC)[C@@H](C)CC)[C@@H](C)O)C(C)C)[C@@H](C)CC)C(=O)N[C@@H](CO)C(=O)N[C@@H](CCCNC(=N)N)C(=O)NCCCC(=O)NC [Peptide P-27415, [N—Me-Tyr^1, Orn^12, Abu^15, Orn^21, Nle^27, Gab^30]hGHRH(1-30)NH—CH3] (H-[NMeY]ADAIFTNSYR[Orn]VL[Abu]QLSAR[Orn]LLQDI[Nle]SR[GABA]-NHMe) | 1.44 | – | 0.45 | 0.41
